Measured values: US12661335B2, “Halogenated xanthene-containing topical anti-gram-positive bacterial ophthalmic composition and method” (Provectus Pharmatech, Inc., priority 2021, dated 2026)

What follows are compounds tested on M. smegmatis 607 ™ (RB mutant).
Type: cell-based, Mycobacterium smegmatis
In the case of `NC[C@H]1O[C@@H](O[C@H]([C@H]2O[C@@H](n3ccc(=O)[nH]c3=O)[C@H](O)[C@@H]2O)[C@H](NCCCC(=O)NCc2ccc(N3CCC(Oc4ccc(OC(F)(F)F)cc4)CC3)cc2)C(N)=O)[C@H](O)[C@@H]1O` [APPB, aminouridyl phenoxypiperidinylbenzyl butanamide], the “susceptibility of the RB-resistant strain to TB drugs” value (“susceptibility” below) was “susceptible”.
For `NCC[C@H](O)C(=O)N[C@@H]1C[C@H](N)[C@@H](O[C@H]2O[C@H](CN)[C@@H](O)[C@H](O)[C@H]2O)[C@H](O)[C@H]1O[C@H]1O[C@H](CO)[C@@H](O)[C@H](N)[C@H]1O` [Amikacin], the “susceptibility” value was “susceptible”.
`CCc1cc(C(N)=S)ccn1` [Ethionamide (ETH), Ethionamide] was tested, and the “susceptibility” value was “susceptible”.
For `NNC(=O)c1ccncc1` [Isoniazid (INH), Isoniazid], the “susceptibility” value was “cross-resistance”.
For Capreomycin, the “susceptibility” value was “susceptible”.
